Measured values reported in patent US20150057316A1, “NOVEL SULFONATE-BASED TRIMEBUTINE SALTS” (GICARE PHARMA INC., priority 2012, published 2015).

Test system: Sprague-Dawley rats
Test: single dose acute and 7-day range-finding oral toxicity study in rats
Type: in vivo
Method: Consequently, a single dose acute and 7-day range-finding oral toxicity study in Sprague-Dawley rats was conducted. During the single dose acute phase of the study, the test article was administered as a single dose by oral gavage to groups of 3 male and 3 female Sprague-Dawley rats, each group receiving a higher or lower dose level, based on the reaction of the previous group during the first day of the observation period.
Upon completion of the 7-day treatment period, all animals were euthanized and subjected to a gross necropsy examination (Day 8 study). Clinical signs (ill health, behavioral changes, etc.) were recorded on all surviving animals. Clinical pathology evaluations (hematology, clinical chemistry and coagulation parameters) were performed on all surviving animals (single dose acute & range-finding phases) prior to their scheduled necropsy. Blood samples were collected terminally from the abdominal aorta (while anesthetized with isoflurane).

CCC(COC(=O)c1cc(OC)c(OC)c(OC)c1)(c1ccccc1)N(C)C.NC(=S)c1cccc(S(=O)(=O)O)c1 (stereo not shown) [Example 20]
dose well tolerated over 7 days without significant clinical signs of toxicity (male and female rats, once daily oral gavage, 7 days): 1,000 mg/kg
death and clinical signs of toxicity (male and female rats, single oral dose up to 2,000 mg/kg): no death and no significant clinical signs of toxicity
single dose well-tolerated (male and female rats, single oral gavage): up to 2,000 mg/kg
deaths during 7-day repeat dose regimen (rats, 2,000 mg/kg once daily p.o., deaths after 3 and 5 days): two animals from the 2,000 mg/kg dose group died
